Assays:
CTLL2 = assay: Cellular screening, CTLL2 cells (Alamar Blue); format: cell-based; details: Mus musculus, CTLL-2, 40 hr incubation
Experimental: (§1) For screening purposes, compounds were diluted in 96 well plates at a concentration of 20 μM. Plates were warmed at 37° C. for 30 minutes before the assay was performed.
(§2) Cell suspensions were prepared by harvesting cells from culture. (the cells used in this test were in late log phase growth with high viability.) Cells were diluted in the appropriate growth medium, as described above, to 1.1× final concentration (from 50,000 cell/mL to 200,000 cell/mL, depending on cell line).
(§3) Compounds to be tested were added (10 μL, 10× final concentration) to a flat bottomed 96-well plate. The cellular suspension (90 μL per well) was then added, and the plate incubated for 40 hr at 37° C., 5% CO2. Alamar Blue 10 μL per well was added and the plates returned to the incubator for a further 4-6 hours. The plates were then read at 544 nm.

BafT_J2 = assay: Cellular screening, BaF3 TEL:JAK2 cells (Alamar Blue); format: cell-based; details: Mus musculus, 40 hr incubation
Experimental: as §1
(§4) The coding region encompassing nucleotides 1-487 of TEL was amplified by PCR using the oligonucleotides 5TEL (5′-GGAGGATCCTGATCTCTCTCGCTGTGAGAC-3′) [SEQ ID NO 14] and 3TEL (5′-AGGC GTCGACTTCTTCTTCATGGTTCTG-3′) [SEQ ID NO 15] and U937 mRNA as a template. A BamHI restriction site was incorporated into the 5TEL primer, and a Sal I restriction site was incorporated into the 3TEL primer. The regions encompassing the kinase domain of JAK2 (nucleotides 2994-3914; JAK2F 5′-ACGC GTCGACGGTGCCTTTGAAGACCGGGAT-3′ [SEQ ID NO 16]; JAK2R 5′-ATAGTTTAGCGGCCGCTCAGAATGAAGGTCATTT-3′) [SEQ ID NO 17] and JAK3 (nucleotides 2520-3469; JAK3F 5′-GAAGTCGACTATGCCTGCCAAGACCCCACGATCTT-3′) [SEQ ID NO 18] were generated by PCR using Taq DNA polymerase (Gibco/BRL) and U937 mRNA as a template. A Sal I restriction site was incorporated into the forward primer of JAK2 and JAK3, a Not I site was incorporated into the JAK2 reverse primer and a Xba I site was added to the reverse primer of JAK3.
A TEL/Jak2 fusion was generated by digestion of the TELPCR product with BamH I/Sal I restriction enzymes, digestion of the JAK2 PCR product with Sal I/Not I restriction enzymes, followed by ligation and subcloning of the ligation product into the mammalian expression Vector pTRE 2 (Clontech), which was prepared by digestion with BamH I-Not I restriction enzymes, to give the TEL/Jak2 fusion plasmid pTELJAK2.
(§5) The growth factor dependant myelomonocytic cell line BaF3 bearing the pTET-off plasmid (Clontech) was transfected with either pTELJAK2 or pTELJAK3, and the transfected cells were selected for growth-factor independent cell growth. The BaF3 wild-type cells were cultured in DMEM containing 10% FCS, 10% WEHI 3B conditioned medium. The BaF3 TELJAK cells ([…]) were cultured in DMEM 10% Tet-System Approved FBS (without WEHI 3B conditioned medium).
as §2, §3

human JAK3 = target: T1, human JAK3 (Homo sapiens, UniProt P52333); assay: JAK3 kinase enzyme assay (Alphascreen); format: biochemical; details: 80 or 625 um ATP
T1 construct: The kinase domain of human JAK3 was amplified; GST (N); made in house; host or cells: Sf9 (Spodoptera frugiperda) insect cells, baculovirus
T1 sequence (P52333 822-1111 limits assumed): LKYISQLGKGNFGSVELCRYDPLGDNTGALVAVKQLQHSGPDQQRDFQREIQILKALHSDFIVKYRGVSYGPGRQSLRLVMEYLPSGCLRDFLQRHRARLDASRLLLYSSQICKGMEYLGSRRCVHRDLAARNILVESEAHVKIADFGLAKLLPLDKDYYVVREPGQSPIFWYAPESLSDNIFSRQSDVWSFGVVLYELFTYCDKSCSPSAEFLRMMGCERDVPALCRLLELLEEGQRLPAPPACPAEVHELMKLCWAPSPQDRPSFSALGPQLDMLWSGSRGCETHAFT
Experimental: (§6) For screening purposes, compounds (in 100% DMSO) were warmed at 37 degrees for at least 20 minutes before use. A […] stock was initially made in assay buffer, where the final concentration of DMSO was 0.3%. The stocks were then diluted in 384 well Optiplates (Packard) where the final concentration of the compound was 5 μM.
The kinase domain of human JAK3 was amplified from U937mRNA using the polymerase chain reaction with the following primers: […]
The JAK3 PCR products were cloned into the pDest20 destination expression vector (Gibco). The JAK3 plasmid was then transformed into competent DH10Bac cells (Gibco), and the recombinant baculovirus was prepared via Sf9 insect cell transfection.
(§7) Baculovirus preparations from each of the JAK family members were infected into one litre of Sf9 (Spodoptera frugiperda) cells (Invitrogen) grown in SF900II serum free medium (Invitrogen) to a cell density of approximately 2×10^6 cells/ml. Cells were infected with virus at a cell culture to virus stock ratio of 20:1. Cells were harvested and lysed 48 hours post infection. The GST-tagged JAK kinase domains were purified by affinity chromatography on a GSH agarose column (Scientifix).
(§8) Kinase assays were performed in 384 well Optiplates (Packard) using an Alphascreen Protein Tyrosine KinaseP100 detection kit The compounds were pre-incubated with affinity purified PTK domain in the presence of phosphotyrosine assay buffer (10 mM HEPES, pH 7.5, 100 mM MgCl2, 25 mM NaCl, 200 mM sodium vanadate and 0.1% Tween 20) for 20 minutes. The compounds were then incubated with substrate in the presence of either 80 or 625 um ATP for 60 or 90 minutes. The substrate used was either susbtrate-1 with the sequence biotin-EGPWLEEEEEAYGWMDF-NH2 [SEQ. ID. NO. 13] (final concentration 111 μM) or susbtrate-2 substrate with the sequence biotin-EQEDEPEGDYFEWLEPE (final concentration 133 μM). Alphascreen phosphotyrosine acceptor beads followed by streptavidin donor beads at a concentration of 1/100 in stop buffer were added to each well under subdued light and incubated for 2-3 hours. The Alphascreen plates were read on a Packard Fusion Alpha instrument.

BafT_J3 = assay: Cellular screening, BaF3 TEL:JAK3 cells (Alamar Blue); format: cell-based; details: Mus musculus, 40 hr incubation
Experimental: as §1, §4
The TEL/Jak3 fusion was prepared by ligation of the JAK3 Sal I/Not I cleaved kinase domain PCR product with the BamH I/Sal I restriction digested TEL product, followed by ligation of the ligation product into the BamH I/Not I digested pTRE2, to give the TEL/Jak3 fusion plasmid pTELJAK3.
as §5, §2, §3

BAF3wt = assay: Cellular screening, BaF3 wild-type cells (Alamar Blue); format: cell-based; details: Mus musculus, 40 hr incubation
Experimental: as §1, §5, §2, §3

human JAK2 = target: T2, human JAK2 (Homo sapiens, UniProt O60674); assay: JAK2 kinase enzyme assay (Alphascreen); format: biochemical; details: 80 or 625 um ATP
T2 construct: The kinase domain of human JAK2 was amplified; GST (N); made in house; host or cells: Sf9 (Spodoptera frugiperda) insect cells, baculovirus
T2 sequence (O60674 849-1124 limits assumed): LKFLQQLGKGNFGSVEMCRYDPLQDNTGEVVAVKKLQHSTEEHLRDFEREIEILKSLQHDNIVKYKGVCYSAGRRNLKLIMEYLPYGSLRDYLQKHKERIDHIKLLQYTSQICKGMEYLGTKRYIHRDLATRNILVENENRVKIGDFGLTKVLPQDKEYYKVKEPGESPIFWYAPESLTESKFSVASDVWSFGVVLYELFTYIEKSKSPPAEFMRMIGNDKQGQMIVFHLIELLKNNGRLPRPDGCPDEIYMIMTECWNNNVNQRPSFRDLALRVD
Experimental: as §6
The kinase domain of human JAK2 was amplified from U937mRNA using the polymerase chain reaction with the following primers: […]
The JAK2 PCR products were cloned into the pDest20 destination vector (Gibco). The JAK2 plasmid was then transformed into competent DH10Bac cells (Gibco), and the recombinant baculovirus was prepared via Sf9 insect cell transfection.
as §7, §8

CCN1CCN(Cc2ccc(Nc3ncc4scc(-c5cccc(S(=O)(=O)NC(C)(C)C)c5)c4n3)cc2)CC1 [Compound 68, N-tert-butyl-3-(2-(4-((4-ethylpiperazin-1-yl)methyl)phenylamino)thieno[3,2-d]pyrimidin-7-yl)benzenesulfonamide]
IC50 (CTLL2): < 5000 nM | IC50 (BafT_J2): < 1000 nM | IC50 (human JAK3): < 500 nM | IC50 (BafT_J3): < 1000 nM | IC50 (BAF3wt): < 1000 nM | IC50 (human JAK2): < 100 nM

CC(C)c1ccccc1-c1csc2cnc(Nc3ccc(OCCN4CCCC4)cc3)nc12 [Compound 96]
IC50 (CTLL2): < 1000 nM | IC50 (BafT_J2): < 1000 nM | IC50 (human JAK3): < 100 nM | IC50 (BafT_J3): < 1000 nM | IC50 (BAF3wt): < 1000 nM | IC50 (human JAK2): < 100 nM

OCc1cccc(-c2csc3cnc(Nc4ccc(N5CCOCC5)cc4)nc23)c1 [Compound 89, (3-(2-(4-morpholinophenylamino)thieno[3,2-d]pyrimidin-7-yl)phenyl)methanol]
IC50 (CTLL2): < 1000 nM | IC50 (BafT_J2): < 1000 nM | IC50 (human JAK3): < 100 nM | IC50 (BafT_J3): < 1000 nM | IC50 (BAF3wt): < 1000 nM | IC50 (human JAK2): < 100 nM

Nc1ccc(-c2csc3cnc(Nc4ccc(N5CCOCC5)cc4)nc23)cc1 [Compound 2, 7-(4-aminophenyl)-N-(4-morpholinophenyl)thieno[3,2-d]pyrimidin-2-amine]
IC50 (CTLL2): < 1000 nM | IC50 (BafT_J2): < 1000 nM | IC50 (human JAK3): < 100 nM | IC50 (BafT_J3): < 1000 nM | IC50 (BAF3wt): < 1000 nM | IC50 (human JAK2): < 100 nM

COc1cc(Nc2ncc3scc(-c4cccc(CO)c4)c3n2)cc(OC)c1OC [Compound 87, (3-(2-(3,4,5-trimethoxyphenylamino)thieno[3,2-d]pyrimidin-7-yl)phenyl)methanol]
IC50 (CTLL2): < 1000 nM | IC50 (BafT_J2): < 1000 nM | IC50 (human JAK3): < 100 nM | IC50 (BafT_J3): < 1000 nM | IC50 (BAF3wt): < 1000 nM | IC50 (human JAK2): < 100 nM

CS(=O)(=O)NCc1cccc(-c2csc3cnc(Nc4ccc(OCCN5CCCC5)cc4)nc23)c1 [Compound 91]
IC50 (CTLL2): < 1000 nM | IC50 (BafT_J2): < 1000 nM | IC50 (human JAK3): < 100 nM | IC50 (BafT_J3): < 1000 nM | IC50 (BAF3wt): < 1000 nM | IC50 (human JAK2): < 100 nM

C=CC(=O)Nc1cccc(-c2csc3cnc(Nc4ccc(N5CCOCC5)cc4)nc23)c1 [Compound 5, N-(3-(2-(4-morpholinophenylamino)thieno[3,2-d]pyrimidin-7-yl)phenyl)acrylamide]
IC50 (CTLL2): < 1000 nM | IC50 (BafT_J2): < 5000 nM | IC50 (human JAK3): < 100 nM | IC50 (BafT_J3): < 1000 nM | IC50 (BAF3wt): < 1000 nM | IC50 (human JAK2): < 100 nM

COc1ccc(-c2csc3cnc(Nc4ccc(OC)c(OC)c4)nc23)c(OC)n1 [Compound 55, N-(3,4-dimethoxyphenyl)-7-(2,6-dimethoxypyridin-3-yl)thieno[3,2-d]pyrimidin-2-amine]
IC50 (CTLL2): < 5000 nM | IC50 (BafT_J2): < 5000 nM | IC50 (human JAK3): < 100 nM | IC50 (BafT_J3): < 5000 nM | IC50 (BAF3wt): < 5000 nM | IC50 (human JAK2): < 100 nM

CC(C)(C)OC(=O)N1CC=C(c2csc3cnc(Nc4ccc(CN5CCOCC5)cc4)nc23)CC1 [Compound 79, tert-butyl 4-(2-(4-(morpholinomethyl)phenylamino)thieno[3,2-d]pyrimidin-7-yl)-5,6-dihydropyridine-1(2H)-carboxylate]
IC50 (CTLL2): < 1000 nM | IC50 (BafT_J2): < 1000 nM | IC50 (human JAK3): < 100 nM | IC50 (BafT_J3): < 5000 nM | IC50 (BAF3wt): < 5000 nM | IC50 (human JAK2): < 100 nM

CS(=O)(=O)Nc1cccc(-c2csc3cnc(Nc4ccc(CN5CCOCC5)cc4)nc23)c1 [Compound 83, N-(3-(2-(4-(morpholinomethyl)phenylamino)thieno[3,2-d]pyrimidin-7-yl)phenyl)methanesulfonamide]
IC50 (CTLL2): < 1000 nM | IC50 (BafT_J2): < 1000 nM | IC50 (human JAK3): < 100 nM | IC50 (BafT_J3): < 1000 nM | IC50 (BAF3wt): < 1000 nM | IC50 (human JAK2): < 100 nM

c1cc(-c2csc3cnc(Nc4ccc(CN5CCOCC5)cc4)nc23)cc(N2CCNCC2)c1 [Compound 93, N-(4-(morpholinomethyl)phenyl)-7-(3-(piperazin-1-yl)phenyl)thieno[3,2-d]pyrimidin-2-amine]
IC50 (CTLL2): < 1000 nM | IC50 (BafT_J2): < 1000 nM | IC50 (human JAK3): < 100 nM | IC50 (BafT_J3): < 1000 nM | IC50 (BAF3wt): < 1000 nM | IC50 (human JAK2): < 100 nM

Fc1ccc(-c2csc3cnc(Nc4ccc(OCCN5CCCC5)cc4)nc23)cc1Cl [Compound 74, 7-(3-chloro-4-fluorophenyl)-N-(4-(2-(pyrrolidin-1-yl)ethoxy)phenyl)thieno[3,2-d]pyrimidin-2-amine]
IC50 (CTLL2): < 5000 nM | IC50 (BafT_J2): < 1000 nM | IC50 (human JAK3): < 500 nM | IC50 (BafT_J3): < 5000 nM | IC50 (BAF3wt): < 5000 nM | IC50 (human JAK2): < 100 nM

CC(C)(C)NS(=O)(=O)c1cccc(-c2csc3cnc(Nc4ccc(CN5CCOCC5)cc4)nc23)c1 [Compound 58, N-tert-butyl-3-(2-(4-(morpholinomethyl)phenylamino)thieno[3,2-d]pyrimidin-7-yl)benzenesulfonamide]
IC50 (CTLL2): < 1000 nM | IC50 (BafT_J2): < 1000 nM | IC50 (human JAK3): < 500 nM | IC50 (BafT_J3): < 1000 nM | IC50 (BAF3wt): < 1000 nM | IC50 (human JAK2): < 100 nM

COc1cc(Nc2ncc3scc(-c4ccc(NCCN5CCOCC5)nc4)c3n2)cc(OC)c1OC [Compound 94, 7-(6-(2-morpholinoethylamino)pyridin-3-yl)-N-(3,4,5-trimethoxyphenyl)thieno[3,2-d]pyrimidin-2-amine]
IC50 (CTLL2): < 1000 nM | IC50 (BafT_J2): < 1000 nM | IC50 (human JAK3): < 500 nM | IC50 (BafT_J3): < 1000 nM | IC50 (BAF3wt): < 1000 nM | IC50 (human JAK2): < 100 nM

COc1ncccc1-c1csc2cnc(Nc3ccc(N4CCOCC4)cc3)nc12 [Compound 45, 7-(2-methoxypyridin-3-yl)-N-(4-morpholinophenyl)thieno[3,2-d]pyrimidin-2-amine]
IC50 (CTLL2): < 1000 nM | IC50 (BafT_J2): < 1000 nM | IC50 (human JAK3): < 100 nM | IC50 (BafT_J3): < 1000 nM | IC50 (BAF3wt): < 1000 nM | IC50 (human JAK2): < 100 nM
